Source: paper PMC9447431 (Journal of chemical information and modeling, 2021)
Where two headings read alike, the source gives them in different places. Values belong to the compound of their own block, whether it stands above or below them.

Key:
Format in all cases: cell-based
OPRM [1] = biological target: T1, OPRM (Homo sapiens, UniProt P35372); experiment: cell-based
OPRK [2] = biological target: T2, OPRK (Homo sapiens, UniProt P41145); experiment: qHTS cAMP assay, agonist mode, HKOR cells
OPRK [3] = biological target: T2, OPRK; experiment: cell-based
OPRD [4] = biological target: T3, OPRD (Homo sapiens, UniProt P41143); experiment: qHTS cAMP assay, antagonist mode, HDOR cells
OPRM [5] = biological target: T1, OPRM; experiment: cell-based; remark: listed apart in the source
OPRD [6] = biological target: T3, OPRD; experiment: qHTS cAMP assay, agonist mode, HDOR cells; settings: CHO-K1 cells expressing human δ-OPR (HDOR)
[7] = OPRK-agonist, CHO-K1 cells expressing human κ-OPR (HKOR), cAMP

T1 sequence (P35372 whole entry): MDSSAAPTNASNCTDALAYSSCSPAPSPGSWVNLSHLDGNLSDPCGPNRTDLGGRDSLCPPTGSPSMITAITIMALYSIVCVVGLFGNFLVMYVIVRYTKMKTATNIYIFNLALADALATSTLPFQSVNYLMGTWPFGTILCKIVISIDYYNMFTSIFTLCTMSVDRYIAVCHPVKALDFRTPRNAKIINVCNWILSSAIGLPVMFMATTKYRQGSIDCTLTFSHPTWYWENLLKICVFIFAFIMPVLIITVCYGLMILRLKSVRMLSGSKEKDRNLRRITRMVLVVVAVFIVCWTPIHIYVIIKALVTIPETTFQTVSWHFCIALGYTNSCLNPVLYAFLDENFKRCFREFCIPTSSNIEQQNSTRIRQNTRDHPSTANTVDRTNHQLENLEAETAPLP
T2 sequence (P41145 whole entry): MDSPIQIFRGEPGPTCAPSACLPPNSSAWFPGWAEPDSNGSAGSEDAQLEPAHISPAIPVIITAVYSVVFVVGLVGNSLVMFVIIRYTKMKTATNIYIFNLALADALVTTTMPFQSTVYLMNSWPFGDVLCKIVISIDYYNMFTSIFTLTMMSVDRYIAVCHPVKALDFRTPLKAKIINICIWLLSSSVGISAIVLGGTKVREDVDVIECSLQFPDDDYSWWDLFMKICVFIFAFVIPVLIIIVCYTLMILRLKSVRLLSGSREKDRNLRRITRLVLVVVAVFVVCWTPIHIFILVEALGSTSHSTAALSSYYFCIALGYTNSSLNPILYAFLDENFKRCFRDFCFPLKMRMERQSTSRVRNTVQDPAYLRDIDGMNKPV
T3 sequence (P41143 whole entry): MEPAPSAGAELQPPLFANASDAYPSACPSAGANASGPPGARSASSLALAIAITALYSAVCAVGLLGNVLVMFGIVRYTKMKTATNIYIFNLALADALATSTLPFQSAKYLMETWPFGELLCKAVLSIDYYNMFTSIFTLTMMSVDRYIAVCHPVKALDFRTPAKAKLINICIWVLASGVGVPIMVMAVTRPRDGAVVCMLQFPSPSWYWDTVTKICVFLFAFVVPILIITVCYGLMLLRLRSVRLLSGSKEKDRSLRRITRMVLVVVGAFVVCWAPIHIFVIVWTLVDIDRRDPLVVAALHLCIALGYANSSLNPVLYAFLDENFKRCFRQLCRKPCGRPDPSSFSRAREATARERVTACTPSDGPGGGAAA

SMILES: COc1ccccc1N1CCN(CC[C@@](C)(C(=O)C2CCCCC2)c2ccccc2)CC1 [NCGC00386484-01, LY 426965]
AC50 (OPRM [1]): 180 nM

SMILES: CO[C@H]1C[C@@H]2CC[C@@H](C)[C@@](O)(O2)C(=O)C(=O)N2CCCC[C@H]2C(=O)O[C@H]([C@H](C)C[C@@H]2CC[C@@H](OP(C)(C)=O)[C@H](OC)C2)CC(=O)[C@H](C)/C=C(\C)[C@@H](O)[C@@H](OC)C(=O)[C@H](C)C[C@H](C)/C=C/C=C/C=C/1C [NCGC00346481-02, Ridaforolimus]
AC50 (OPRK [2]): 130 nM

SMILES: Nc1ncnc2c1nc(Cl)n2[C@@H]1O[C@@H]2COP(=O)(O)O[C@H]2[C@H]1O [NCGC00485288-01, Tocladesine]
AC50 (OPRK [3]): 920 nM
AC50 (OPRD [4]): 460 nM
AC50 (OPRM [5]): 1030 nM

SMILES: COc1ccccc1N1CCN(Cc2cc(COC(C)C)c3cccnc3c2O)CC1 [NCGC00114968-02]
AC50 (OPRM [5]): 650 nM

SMILES: O=C(Nc1ccccc1C(F)(F)F)N1CCC(CN2CCc3ccccc3C2)CC1 [NCGC00123899-01]
AC50 (OPRM [1]): 920 nM

SMILES: O=C(NCCCc1nc2ccccc2n1Cc1ccccc1Cl)C1CCCCC1 [NCGC00114743-01]
AC50 (OPRM [1]): 1640 nM

SMILES: O=C(O)c1ccc(O)c2ncc(N3CCCN(CCc4cccc5ccccc45)CC3)cc12 [NCGC00247751-02]
AC50 (OPRM [1]): 650 nM

SMILES: CCOC(=O)c1c(NC(=O)c2ccc(S(=O)(=O)N(C)C)cc2)sc2c1CCN(C)C2 [NCGC00136158-01]
AC50 (OPRD [6]): 2310 nM

SMILES: Cc1cccc(-c2[nH]c(Cc3cccc(C(N)=O)c3)nc2-c2ccc3nccnc3c2)n1 [NCGC00386726-01, IN-1130]
AC50 (OPRK [3]): 2060 nM
IC50 (OPRK [3]): 2060 nM

SMILES: N#CC(CCCN1CCC(O)(c2ccc(Cl)cc2)CC1)(c1ccccc1)c1ccccc1 [NCGC00378719-01, VUF-2274]
AC50 (OPRM [1]): 410 nM

SMILES: CCCN(CCC)S(=O)(=O)c1ccc(C(=O)Nc2sc3c(c2C(=O)OC)CCN(CC)C3)cc1 [NCGC00139128-01]
AC50 (OPRD [6]): 2060 nM

SMILES: Cc1cc(Cl)ccc1OCC(=O)N(Cc1ccc(N(C)C)cc1)CC1CCCO1 (centres unmarked) [NCGC00117293-01]
AC50 (OPRK [2]; [7]): 2500 nM

AC50 (OPRM [1]): 1830 nM
SMILES: O=C(CC(c1ccccc1)c1ccccc1)N1CCN(C(c2ccccc2)c2ccccc2)CC1 [NCGC00378879-01, NP-118809]

SMILES: Nc1ncnc2c1ncn2[C@@H]1O[C@@H]2COP(O)(=S)O[C@H]2[C@H]1O (some centres unmarked) [NCGC00485585-01, Adenosine 3’,5’-cyclothiophosphate]
AC50 (OPRK [3]): 70 nM
IC50 (OPRK [3]): 40 to 70 nM
IC50 (OPRD [4]; OPRD, antagonist mode, range given for all three receptors): 40 to 70 nM
AC50 (OPRD [4]; OPRD-antagonist, HDOR cells, with 2nM dynorphin B): 40 nM
AC50 (OPRM [5]): 60 nM
IC50 (OPRM [5]): 40 to 70 nM

SMILES: CCn1c(=N)n(CCOc2ccc(Br)cc2)c2ccccc21 [NCGC00141762-01]
AC50 (OPRM [1]): 2060 nM

SMILES: CCCC1=Nc2cc(C(=O)N3CCC(C)CC3)ccc2Sc2ccc(C)cc21 [NCGC00107633-01]
AC50 (OPRM [1]): 920 nM

SMILES: O=C(NCCCc1nc2ccccc2n1Cc1c(F)cccc1Cl)C1CCCCC1 [NCGC00114741-01]
AC50 (OPRM [1]): 520 nM

SMILES: CCC(=O)NCC(c1ccc2c(c1)OCO2)N1CCN(c2ccccc2)CC1 (centres unmarked) [NCGC00135974-01]
AC50 (OPRK [2]; [7]): 1160 nM

SMILES: CN1CCN(C2(CNC(=O)c3ccc(C(C)(C)C)cc3)CCCCC2)CC1 [NCGC00118549-01]
AC50 (OPRM [1]): 460 nM

SMILES: COc1ccc(NC(=O)Cn2c(=O)n(-c3ccc(CC(=O)NCC4CCCO4)cc3)c(=O)c3ccccc32)c(OC)c1 (centres unmarked) [NCGC00106344-01]
AC50 (OPRK [3]): 2060 nM
IC50 (OPRK [3]): 2060 nM

SMILES: O=C(NCCN1CCC(n2c(=O)[nH]c3ccccc32)CC1)c1cc2cc(F)ccc2[nH]1 [NCGC00370807-05, FIPI]
AC50 (OPRM [1]): 580 nM

AC50 (OPRM [1]): 130 nM
SMILES: Cc1cn(CCN2CCN(c3ccccc3-c3cc(C#N)cc(C(=O)NCCCN4CCCC4)c3)CC2)c2ccccc12 [NCGC00356417-05, LLY-507]

SMILES: Cc1cccc(OCC(=O)NCC2(N3CCN(C)CC3)CCCCC2)c1C [NCGC00118605-01]
AC50 (OPRM [1]): 1830 nM
